# Values joined by “and” are separate entries in the source; they are usually repeats but may differ in a detail not shown here. Equal values may be shown once.
# Legend:
# [1] = tested on: Lactuca sativa (lettuce) seeds; assay: 96-well seed germination inhibition screen; format: in vivo; conditions: single lettuce seed per well, 50 μL solution, 5× dilution series
# Procedure: Numerous natural compounds were screened for their ability to inhibit the germination of dicot (broadleaved weed) seeds. A single seed of Lactuca sativa (lettuce) was placed in each well of a 96-well plate followed by 50 μL of a solution of each compound in a stepwise (5×) dilution series from 25% to 0%. Germination was monitored daily. Based on this screening study, the threshold value for hinokitiol to inhibit germination of seeds was determined at 0.32 mg/L.
# [2] = tested on: Lactuca sativa (lettuce) seedlings; assay: High-throughput 96-well post-emergence herbicide assay; format: in vivo
# Procedure: A high-throughput 96-well assay was used to test the efficacy of hinokitiol as a post-emergence, non-selective herbicide. Seedlings of Lactuca sativa (lettuce) were grown in 96-well plates under continuous light. Hinokitiol was added on the one-week old seedlings at a 5×-dilution series from 1 to 0 mg/mL, and the minimum concentration needed for killing the seedling was recorded the next day.
# [3] = tested on: annual bluegrass (Poa annua); assay: Pot study, phytotoxicity and % weed control; format: in vivo
# Procedure: (§1) A pot study was conducted to test the phytotoxicity of hinokitiol on both broadleaved and grass weed. Ten seeds of either chickweed (Stellaria media) or annual bluegrass (Poa annua) were planted in a plastic pot filled with potting mix. The 2-inch tall plants grown under growth lights (12-h light/12-h dark) at room temperature were sprayed with hinokitiol solutions containing 0.5, 1.0, 2.0, 3.0, 4.0 and 5.0 mg/mL hinokitiol in 50% ethanol. A solution of 50% ethanol without hinokitiol was used as a control treatment. The plants were kept at room temperature under growth lights and observed at two time points—4 and 14 days after treatment—for visual symptoms of phytotoxicity and % weed control.
# [4] = tested on: chickweed (Stellaria media); assay: Pot study, phytotoxicity and % weed control; format: in vivo
# Procedure: as §1
# Botrytis gray mold = Botrytis gray mold on pepper plants, formulation applied pre and post infection; format: in vivo
# Procedure: Pepper plants (California Wonder Bell Pepper) were treated with a 3.2% Hinokitiol formulation containing propylene glycol, nonphytotoxic ethoxylate fatty esters; butanol, EDTA, UV protection agent, 1% of a 15% solution of sodium hydroxide and water 3 hours before and 24 hours after inoculation (pre and post infection, respectively). Hinokitiol concentration in pre-infection application was 1.0% v/v and for post-infection application was 2.0% v/v. Three plants were included per treatment in pre-infection applications, and 18 plants in post-infection treatments. The formulation employed contained 3.2% of active ingredient. Inoculation was performed with a conidial suspension of 1.8×10^6 conidia per ml of 75% PDB (Potato Dextrose Broth). Scale of evaluation was 0=no infection, 1=Small scattered lesions, 2=Scattered big lesions or small ones covering more than 50% of leaf surface, 3=Half plant dead, 4=75% of the plant dead, 5=Entire plant dead. Evaluation was performed 3 days after inoculation.
# [5] = tested on: spurge, white clover, annual bluegrass and crab grass; assay: Field study of herbicidal effect, % weed control; format: in vivo
# Procedure: A hinokitiol formulation containing 32.4% of hinokitiol by weight was tested in a field study. The formulation also contained dispersing agent, water and emulsifier. The two concentrations tested contained 5% and 0.5% hinokitiol (w/w), and the spraying volume was 100 gallons per acre. Three replicate 1-square-foot plots were sprayed with the appropriate solutions, and the % weed control in each plot was recorded at 3, 7, 14 and 20 days after treatment. The main weeds in this study were spurge, white clover, annual bluegrass and crab grass.
# [6] = Analysis of hinokitiol residue on green beans after sun exposure; format: physicochemical, green bean; conditions: for [hinokitiol] in the HPLC injection solution: green bean leaves
# Procedure: The goal of this study was to know stability of hinokitiol on plant leaves, instead of vials, after sun exposure. The following procedure was used • 1. A 3.2% Hinokitiol formulation containing propylene glycol, nonphytotoxic ethoxylate fatty esters; butanol, EDTA, UV protection agent, 1% sodium hydroxide and water for a total of 100% was used. The total weight of each formulation was 20 grams. • 2. Spraying solution: 10 mL of 100-fold dilution of the above formulation. • 3. Green bean plants: 6 plants with 10-15 leaves. • 4. Two plants were evenly sprayed 10 mL solution. • 5. Three plants was stored in dark incubator (25° C.), another three plants was put on the parking lot with full sun exposure (28˜35° C.). • 6. After 6 h, leaves were cut and punched into the same size discs (Ø21 mm). Discs from sun-exposed green bean and darkness green bean were 118 and 129, respectively. • 7. Discs were ground in a mortar and transferred into a separation funnel. The mortar and pestle were sequentially washed with 2 N HCl and ethyl acetate. The hinokitiol was extracted three times (3×50 mL) by ethyl acetate under 2N HCl (100 mL). The organic phase was dried by anhydrous sodium sulfate. After filtration and evaporation, the organic phase gave out a residue. The residue was dissolved by ethanol (1.5 mL). This solution was directly used for HPLC analysis. Injection volume was 10 μL.
# • Darkness: leaf disc 129 • Sun exposure: leaf disc 118 • Darkness: Peak area (AU): 50463 • Sun exposure: Peak Area (AU); 13197 • Standard line: y=66.367X-52.019 (R^2=0.9999, X=μg/ml of hinokitiol standard solution, 2 μL injection volume; y=peak area)
# • [hinokitiol] from darkness=152 μg/mL*1.5 mL/129 Disc=1.77 μg/Disc • [hinokitiol] from sun exposure=40 μg/mL*1.5 mL/118 Disc =0.51 μg/Disc
# • [hinokitiol] from sun exposure/[hinokitiol] from darkness=0.51/1.77=0.29
# [7] = 0.5 mg/mL in 50% ethanol, 4 DAYS
# [8] = 0.5 mg/mL in 50% ethanol, 14 DAYS
# [9] = 1.0 mg/mL in 50% ethanol, 4 DAYS
# [10] = 1.0 mg/mL in 50% ethanol, 14 DAYS
# [11] = 2.0 mg/mL in 50% ethanol, 4 DAYS
# [12] = 2.0 mg/mL in 50% ethanol, 14 DAYS
# [13] = 3.0 mg/mL in 50% ethanol, 4 DAYS
# [14] = 3.0 mg/mL in 50% ethanol, 14 DAYS
# [15] = 4.0 mg/mL in 50% ethanol, 4 DAYS
# [16] = 4.0 mg/mL in 50% ethanol, 14 DAYS
# [17] = 5.0 mg/mL in 50% ethanol, 4 DAYS
# [18] = 5.0 mg/mL in 50% ethanol, 14 DAYS
structure (smiles),measurement,setting,value
"CC(C)c1cccc(=O)c(O)c1 [Hinokitiol, 4-isopropyl tropolone]",threshold value to inhibit germination of seeds,[1],0.32 mg/L
same,effect on lettuce seedlings,[2]; concentration of 8 mg/L,not harmful to the plant
same,minimum concentration needed for killing the seedling,"[2]; one-week old lettuce seedlings, recorded the next day",40 mg/L
same,Poa annua (% control),[3]; [7],0%
same,Poa annua (% control),[3]; [8],0%
same,Poa annua (% control),[3]; [9],1%
same,Poa annua (% control),[3]; [10],0%
same,Poa annua (% control),[3]; [11],2%
same,Poa annua (% control),[3]; [12],5%
same,Poa annua (% control),[3]; [13],10%
same,Poa annua (% control),[3]; [14],15%
same,Poa annua (% control),[3]; [15],30%
same,Poa annua (% control),[3]; [16],25%
same,Poa annua (% control),[3]; [17],50%
same,Poa annua (% control),[3]; [18],50%
same,Stellaria media (% control),[4]; [7],1%
same,Stellaria media (% control),[4]; [8],0%
same,Stellaria media (% control),[4]; [9],2%
same,Stellaria media (% control),[4]; [10],10%
same,Stellaria media (% control),[4]; [11],10%
same,Stellaria media (% control),[4]; [12],55%
same,Stellaria media (% control),[4]; [13],95%
same,Stellaria media (% control),[4]; [14],100%
same,Stellaria media (% control),[4]; [15],98%
same,Stellaria media (% control),[4]; [16],100%
same,Stellaria media (% control),[4]; [17],100%
same,Stellaria media (% control),[4]; [18],100%
same,number of pepper plants at scale of infection 2,"Botrytis gray mold; 0.64 mg/ml, 24 hr after inoculation, of 18 plants per rep",12 and 7
same,number of pepper plants at scale of infection 4,"Botrytis gray mold; 0.64 mg/ml, 24 hr after inoculation, of 18 plants per rep, 4 = 75% of the plant dead",1 and 2
same,"intensity of disease (scale of severity 0-5), single plants","Botrytis gray mold; 3.2% hinokitiol formulation at 1.0% v/v (0.32 mg/ml), applied 3 hr before inoculation, evaluated 3 days after inoculation, 1 = small scattered lesions, 5 = entire plant dead",1
same,visible symptoms of disease or phytotoxicity on pepper plants,Botrytis gray mold; hinokitiol formulation at 1% (0.32 mg/ml) dilution,did not show any visible syptoms of disease or phytotocicity
same,% weed control,"[5]; 0.5% hinokitiol (w/w), 3 DAYS",3.3%
same,% weed control,"[5]; 0.5% hinokitiol (w/w), 7 DAYS",3.7%
same,% weed control,"[5]; 0.5% hinokitiol (w/w), 14 DAYS",1.7%
same,% weed control,"[5]; 0.5% hinokitiol (w/w), 20 DAYS",3.0%
same,% weed control,"[5]; 5.0% hinokitiol (w/w), 7 DAYS",90.3%
same,% weed control,"[5]; 5.0% hinokitiol (w/w), 14 DAYS",88.3%
same,% weed control,"[5]; 5.0% hinokitiol (w/w), 20 DAYS",83.7%
same,% weed control,"[5]; 5.0% hinokitiol (w/w), 100 gallons per acre, 3 DAYS",86.7%
same,weeds controlled,"[5]; formulation containing 5% (w/w) hinokitiol, one week after spraying",more than 90%
same,herbicidal effect on weeds,[5]; same solution at 10× lower concentration,negligible effect
same,Relative stability: [hinokitiol] from sun exposure/[hinokitiol] from darkness,[6]; 6 h,0.29
same,hinokitiol concentration on each disc of green beans,"[6]; 6 h darkness, 25° C.",1.77 μg/Disc
same,hinokitiol concentration on each disc of green beans,"[6]; 6 h sun exposure, 28-35° C.",0.51 μg/Disc
same,hinokitiol concentration per unit area (Disc) relative to that stored in the darkness at 25° C.,[6]; after 6 h sun exposure at 28-35° C.,29%
same,[hinokitiol] in the HPLC injection solution,"[6]; 6 h darkness, 25° C.",152 µg/mL
same,[hinokitiol] in the HPLC injection solution,"[6]; 6 h sun exposure, 28-35° C.",40 µg/mL
same,time the residue on the plant would last,[6]; green bean plants,at least one day
